{"source": "patent US20150216850A1", "about": "(priority 2012, published 2015)", "origin": "cited, not measured here", "key": {"[1]": {"system": "Huntington's disease patients"}, "[2]": {"system": "Huntington's disease patients", "settings": "twice-daily doses of 45 mg over 12 weeks"}, "[3]": {"system": "patients with HD"}}}
{"smiles": "CCCN1CCC(c2cccc(S(C)(=O)=O)c2)CC1", "note": "[pridopidine]", "values": [{"measurement": "tertiary endpoint UHDRS-TMS and individual items within the mMS (gait, dysarthria)", "setting": "[1]; 45 mg daily or 90 mg daily for 6 months", "result": "statistically significant effect"}, {"measurement": "primary endpoint: effect on subset of motor symptoms defined in the mMS", "setting": "[1]; 45 mg daily or 90 mg daily, at 26 weeks", "result": "not met"}, {"measurement": "effect on total motor function", "setting": "[2]", "result": "significant effect"}, {"measurement": "symptomatic relief (hand movements, gait and balance)", "setting": "[3]", "result": "significant symptomatic relief"}]}
